Laboratory results as given in US9271962B2 (NORTHEASTERN UNIVERSITY, priority 2008, dated 2016).

Assays:
ΔTM rFAAH = target: T1, ΔTM rFAAH (Rattus norvegicus, UniProt P97612); assay: Fluorescent enzyme assay, FAAH (AAMCA hydrolysis); format: biochemical; settings: for inhibition at 0.01 µM: 10 nM inhibitor; for inhibition at 0.01 µM / inhibition at 1 µM: screening assay; for inhibition at 1 µM: 1000 nM inhibitor
T1 construct: 15 ug of ΔTM rFAAH (cell lysate obtained by recombinant procedure); made in house
T1 sequence (P97612 30-579 limits assumed): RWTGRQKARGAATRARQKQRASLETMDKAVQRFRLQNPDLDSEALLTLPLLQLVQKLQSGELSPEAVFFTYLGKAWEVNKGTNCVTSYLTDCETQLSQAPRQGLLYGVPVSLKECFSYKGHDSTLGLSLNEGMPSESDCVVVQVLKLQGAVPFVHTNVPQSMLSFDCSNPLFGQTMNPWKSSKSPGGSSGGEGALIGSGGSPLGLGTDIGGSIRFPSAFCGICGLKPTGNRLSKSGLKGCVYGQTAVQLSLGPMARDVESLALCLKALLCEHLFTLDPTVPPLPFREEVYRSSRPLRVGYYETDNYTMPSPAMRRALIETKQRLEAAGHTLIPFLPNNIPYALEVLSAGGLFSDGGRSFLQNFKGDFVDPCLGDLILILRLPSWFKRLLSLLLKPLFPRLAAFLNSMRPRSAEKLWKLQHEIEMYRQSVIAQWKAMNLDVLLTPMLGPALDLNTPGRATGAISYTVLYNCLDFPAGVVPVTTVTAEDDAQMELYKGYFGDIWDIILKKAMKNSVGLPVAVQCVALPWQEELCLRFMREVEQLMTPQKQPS
Protocol: (§1) Some analogs were tested for their FAAH/MGL inhibitory activity, which is expressed as % of inhibition (Tables 2, 3, and 4 below). The percentage of inhibition results from three-point assay (three concentrations of inhibitor are used) and it is less accurate (preliminary screening) than the IC50/Ki values that are determined from eight-point assay (eight different concentrations of inhibitor were used). The percentage of inhibition describes the percentage by which the inhibitor reduces the velocity/rate of AAMCA (arachidonoyl-7-amino-4-methylcoumarin amide) or AHMMCE (arachidonoyl-7-hydroxy-6-methoxy-4-methylcoumarin ester) hydrolysis by FAAH or MGL respectively. The IC50 is the concentration of the inhibitor, which results in 50% inhibition of the velocity/rate of AAMCA (arachidonoyl 7-amino-4-methylcoumarin amide) hydrolysis by FAAH or AHMMCE (Arachidonoyl, 7-hydroxy-6-methoxy-4-methylcoumarin ester) hydrolysis by MGL. The Ki value is the affinity constant and describes the ability of the compounds to inhibit the function of FAAH or MGL. The lower the IC50/Ki values, the higher the affinity of the inhibitor for the enzyme and the higher its inhibitory activity. A detailed description of the methods used to test inhibitory activity of compounds is given below.
The enzyme (FAAH and MGL) assays were performed in 96 well plates (Coster #3650) in a total volume of 200 uL. Fluorogenic substrate AAMCA (arachidonoyl 7-amino-4-methylcoumarin amide) for FAAH and AHMMCE (arachidonoyl 7-hydroxy-6-methoxy-4-methylcoumarin ester) for MGL were used using BioTek Synergy HT Microplate Reader. Compounds and substrates were dissolved in DMSO provide a 10 mM stock solution and kept as a stock solution at −20° C. until used for assay. Stock solutions were thawed and reconstituted in 50:50 DMSO/assay buffer to a final DMSO concentration per well below 8%. This ensures that the compounds and substrate are in solution during assay. […] Appropriate substrate was added to adjust the final concentration in each well to 20 uM for FAAH (2× Km) and 10 uM for MGL (1×KM). Fluorescence readings were performed at λex=360/λem=460 for 4 h using Kinetic assay protocol at every 20 min (the fluorescent product coumarin produced is quantitated by this procedure). The readings at 3 h for FAAH and 2 h for MGL (linear maximum hydrolysis kinetics of enzyme on substrate) were used to calculate percent inhibition based on controls. Compounds which had more than 50 percent inhibition at 10 uM were selected for dose response study to determine IC50 values. The dose response at 8 concentration points was performed as with the screening assay except that compounds were serially diluted to 8 concentration points which were chosen based on IC50 value, which were calculated from the screening assay results. Assays are run twice in triplicates and Graphpad Prism software is used to plot inhibition data to obtain IC50 values.

hMGL = target: T2, hMGL (Homo sapiens, UniProt Q99685); assay: Fluorescent enzyme assay, MGL (AHMMCE hydrolysis); format: biochemical; settings: for inhibition at 0.01 µM: 10 nM inhibitor, read-out: % Inhibition of Enzyme by inhibitor, MGL, 10 nM; for inhibition at 0.01 µM / inhibition at 1 µM: screening assay; for inhibition at 100 µM: 100 uM inhibitor, printed in the 1000 nM column; for inhibition at 1 µM: 1000 nM inhibitor
T2 construct: A full-length cDNA clone of the human MGL transcript variant 1; made in house; host or cells: E. coli BL21 (DE3)
T2 sequence (Q99685 2-303 limits assumed): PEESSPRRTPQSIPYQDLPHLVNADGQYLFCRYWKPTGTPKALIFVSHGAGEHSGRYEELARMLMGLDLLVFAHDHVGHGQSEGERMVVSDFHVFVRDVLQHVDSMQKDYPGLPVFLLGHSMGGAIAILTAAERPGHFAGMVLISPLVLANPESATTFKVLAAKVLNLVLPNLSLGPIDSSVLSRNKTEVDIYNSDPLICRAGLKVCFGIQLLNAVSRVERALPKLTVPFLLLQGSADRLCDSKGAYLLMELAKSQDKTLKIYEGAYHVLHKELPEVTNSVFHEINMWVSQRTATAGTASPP
Protocol: as §1
A full-length cDNA clone of the human MGL transcript variant 1 (gi: 51242951) was obtained from OriGene Technologies (Rockville, Md.). The coding part of the MGL sequence (except the translation initiation codon ATG) was amplified by a polymerase chain reaction (PCR) using forward […] and reverse […] primers containing PmlI and SacI restriction enzyme recognition sites, respectively. iProof high-fidelity DNA polymerase (Bio-Rad, Hercules, Calif.) was used in the PCR amplification with 33 cycles, each consisting of denaturation at 94° C. for 10 s, annealing at 55° C. for 33 s, and extension at 72° C. for 1 min. The PCR product and pET45b vector were digested with PmlI and SacI restriction enzymes, and the vector was dephosphorylated with CIP followed by in-gel purification using the MinElute Gel Extraction Kit (Qiagen Corp., Valencia, Calif.). The fragment was inserted into the vector directly downstream after the 6 histidine and valine codons, generating the construct pET45His6hMGL for expression of hMGL containing an N-terminal His6-tag. GC10 E. coli cells were used for DNA transformation and plasmid propagation. Mini- and midi-scale plasmid DNA preparations were performed using a GenElute Plasmid Miniprep Kit (Sigma) and PureYield Plasmid Midiprep System (Promega, Madison, Wis.), respectively. In-frame vector-fragment junctions and the coding sequence of the recombinant gene were confirmed by sequencing. The pET45His6hMGL construct was transformed into BL21 (DE3) and Origami (DE3) E. coli expression strains (Novagen, Madison, Wis.).
A single E. coli BL21 (DE3) colony containing the pET45His6hMGL plasmid was inoculated into 12 mL of Luria broth-ampicillin medium and grown overnight with shaking (250 rpm) at 37° C. The next morning, 10 mL of this culture was inoculated into 1 L of fresh Luria broth-ampicillin and allowed to grow until culture turbidity reached an (OD)600 of 0.6-0.8, at which time expression from the T7 promoter was induced by adding isopropyl-β-D-thio-galactopyranoside (1 mM). After 5 h induction, the cells were harvested by centrifugation at 5,000 g for 10 min at 4° C., washed with PBS, and held at −80° C. Five grams (wet-weight) of cells were resuspended in 50 mL lysis buffer (100 mM NaCl; 50 mM Tris, pH 8.0) supplemented with Triton X-100 (0.5%), lysozyme (0.2 mg/mL), and DNase I (25 μg/ml) and disrupted on ice by three, one-min sonication cycles, each consisting of 1-sec sonication bursts at 50 W power separated from each other by a 2-sec interval (Vibra-Cell 500 W, Sonics, Newtown, Conn.). The cell lysate was centrifuged at 10,000 g for 30 min at 4° C. […]

SMILES	inhibition at 0.01 µM (ΔTM rFAAH; AAMCA substrate) [%]	inhibition at 0.01 µM (hMGL; AHMMCE substrate) [%]	inhibition at 1 µM (ΔTM rFAAH; AAMCA substrate) [%]	further results
CN(C)C(=O)n1nnnc1Cc1ccccc1 [Compound 35, 5-benzyl-N,N-dimethyl-1H-tetrazole-1-carboxamide]	81	41		
CN(C(=O)n1nnnc1Cc1ccc(Cl)cc1Cl)c1ccccc1 [Compound 7b]	89	8		
CN(C)C(=O)n1nnc(Cc2ccc3ccccc3c2)n1 [Compound 51]			30	inhibition at 100 µM (hMGL): 26%
CN(C)C(=O)N1C=NC2C(N=CN2C(=O)N(C)C)C1=O (stereo not shown) [Compound 62, N^1,N^1,N^9,N^9-tetramethyl-6-oxo-5,6-dihydro-4H-purine-1,9-dicarboxamide]			99	inhibition at 1 µM (hMGL; AHMMCE substrate): 83%
O=C(N1CCN(Cc2ccccc2)CC1)n1nnc(Cc2ccc(Cl)cc2Cl)n1 [Compound 15]			95	inhibition at 1 µM (hMGL; AHMMCE substrate): 63%
CN(C)C(=O)n1nnc(Cc2ccccc2Cl)n1 [Compound 45, 5-(2-chlorobenzyl)-N,N-dimethyl-2H-tetrazole-2-carboxamide]		93		
CN(C)C(=O)n1nnc2ccccc21 [Compound 28, N,N-dimethyl-1H-benzo[d][1,2,3]-triazole-1-carboxamide]	67	30		
CN(C)C(=O)n1nnnc1Cc1cccnc1 [Compound 5, N,N-dimethyl-5-(pyridin-3-yl-methyl)-1H-tetrazole-1-carboxamide]	84	81		
CN(C(=O)n1nnc(Cc2ccc(Cl)cc2Cl)n1)c1ccccc1 [Compound 7a, 5-(2,4-dichlorobenzyl)-N-methyl-N-phenyl-2H-tetrazole-2-carboxamide]	84	58		
CN(C)C(=O)n1cnnc1 [Compound 29, N,N-dimethyl-4H-1,2,4-triazole-4-carboxamide]			92	inhibition at 1 µM (hMGL; AHMMCE substrate): 79%
O=C(N(c1ccccc1)c1ccccc1)n1nnc(Cc2ccc(Cl)cc2Cl)n1 [Compound 8a, 5-(2,4-dichlorobenzyl)-N,N-diphenyl-2H-tetrazole-2-carboxamide]			66	IC50 (ΔTM rFAAH; eight-point dose response, AAMCA substrate): 1300 nM; inhibition at 1 µM (hMGL; AHMMCE substrate): 100%; IC50 (hMGL; eight-point dose response, AHMMCE substrate): 40 nM
CN(C)C(=O)n1cnc2nc(OCc3ccccc3)ncc21 [Compound 59, 2-(benzyloxy)-N,N-dimethyl-7H-purine-7-carboxamide]				inhibition at 100 µM (ΔTM rFAAH; 100 uM inhibitor, printed in the 1000 nM column): 10%; inhibition at 100 µM (hMGL): 86%
CN(CCCCN=[N+]=[N-])C(=O)n1cnc(-c2ccccc2)c1 [Compound 48, N-(4-azidobutyl)-N-methyl-4-phenyl-1H-imidazole-1-carboxamide]	8		90	inhibition at 1 µM (hMGL; AHMMCE substrate): 14%
CN(C)C(=O)n1nnc(Cc2ccc(-c3cccnc3)cc2)n1 [Compound 43, N,N-dimethyl-5-(4-(pyridin-3-yl)benzyl)-2H-tetrazole-2-carboxamide]			34	
CN(C)C(=O)n1cnc(-c2ccccc2)n1 [Compound 52, N,N-dimethyl-3-phenyl-1H-1,2,4-triazole-1-carboxamide]		2		inhibition at 1 µM (hMGL; AHMMCE substrate): 87%
CN(C)C(=O)n1nnc(C(F)(F)c2ccccc2)n1 [Compound 46, 5-(difluoro(phenyl)methyl)-N,N-dimethyl-2H-tetrazole-2-carboxamide]		2		inhibition at 1 µM (hMGL; AHMMCE substrate): 92%
O=C(N1CCN(Cc2ccc3ccccc3n2)CC1)n1nnc(Cc2ccc(Cl)cc2Cl)n1 [Compound 65, (5-(2,4-dichlorobenzyl)-2H-tetrazol-2-yl)(4-(quinolin-2-ylmethyl)piperazin-1-yl)methanone]				inhibition at 100 µM (hMGL): 68%
O=C(N1CCN(Cc2ccc3ccccc3n2)CC1)n1cnc(-c2ccccc2)c1 [Compound 64, (4-phenyl-1H-imidazol-1-yl)(4-(quinolin-2-ylmethyl)piperazin-1-yl)methanone]				inhibition at 100 µM (hMGL): 19%

Continued, in another order:

inhibition at 0.01 µM (ΔTM rFAAH; AAMCA substrate) [%]	inhibition at 0.01 µM (hMGL; AHMMCE substrate) [%]	inhibition at 1 µM (ΔTM rFAAH; AAMCA substrate) [%]	SMILES	further results
89	60		CSc1ccc(Cc2nnnn2C(=O)N(C)C)cc1 [Compound 23b]	
92	64		CN(C)C(=O)n1nnnc1Cc1ccc(Br)cc1 [Compound 16b]	
85	22		CN(C)C(=O)n1nnnc1Cc1ccc([N+](=O)[O-])cc1 [Compound 22b]	
90	6		CN(C)C(=O)n1nnnc1Cc1ccc(C(F)(F)F)cc1 [Compound 20b]	
93	98		CN(C)C(=O)n1nnc(Cc2ccc(C(F)(F)F)cc2)n1 [Compound 20a, N,N-dimethyl-5-[4-(trifluoromethyl)benzyl]-2H-tetrazole-2-carboxamide]	
		25	CN(C)S(=O)(=O)n1nnc(Cc2ccc(-c3ccccc3)cc2)n1 [Compound 38a]	
